Assay results from patent US10941157B2, “Pesticidal compositions and uses thereof” (Gilead Apollo, LLC, priority 2015, dated 2021).
≈ marks a conversion by molar mass, not a printed value.

Experiments:
[1] = test system: Mycosphaerella graminicola (synthetic Septoria tritici); assay: Foliar protection test for wheat septoria leaf blotch control; format: in vivo; conditions: foliar spray on Triticum aestivum cv. WinterHawk, inoculated 1 hour after treatment, evaluated 16 days later
[2] = test system: Fusarium moniliforme (Fm); assay: In vitro pathogen growth inhibition assay, Fm; format: cell-based; conditions: Fusarium verticillioides; ≥90% growth inhibition; 48 hours; vs 2% DMSO control; read-out: Compound Concentration (ppm) sufficient for ≥90% inhibition of Fm
Procedure, shortened: (§1)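 Value reported is the compound concentration reaching ≥90% growth inhibition, from OD readings at 24 and 48 h after blank subtraction, confirmed visually. Inoculum was spores diluted in 17% V8 medium, except Rs, using 1.5 mm mycelial plugs in ¼ PDB; actual compound concentration corrected via OD600.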

Fusarium graminearum = format: in vivo; conditions: spray on flowering Triticum aestivum cv. Samson, inoculated 24 hours after treatment, evaluated 14 days later
[3] = test system: Blumeria graminis f. sp. hordei; assay: Foliar protection test for barley powdery mildew control; format: in vivo; conditions: foliar spray on Hordeum vulgare cv. Perry, inoculated 24 hours after treatment, evaluated 7 days later
Procedure, shortened: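 Protective foliar test: compound atomized onto both leaf surfaces of 6-day-old Hordeum vulgare cv. Perry, followed after 24 h by spore-cloud inoculation from colonized untreated plants. Disease rated on leaves 7 days on, plants held at 20 to 22° C and 70% RH.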

[4] = test system: Phytophthora capsici (Pc); assay: In vitro pathogen growth inhibition assay, Pc; format: cell-based; conditions: 48 h, ≥90% growth inhibition, 48 hours, vs 2% DMSO control, read-out: Compound Concentration (ppm) sufficient for ≥90% inhibition of Pc
Procedure, shortened: (§2)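 Spores in 17% V8 liquid medium, or 1.5 mm Rs mycelial plugs in ¼ PDB, incubated with compound; final concentration checked by OD600 for precipitation. OD readings at 24 and 48 h, blank-subtracted, plus visual ratings; value is concentration giving ≥90% growth inhibition.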

[5] = test system: Collectotrichum graminicola (Cg); assay: In vitro pathogen growth inhibition assay, Cg; format: cell-based; conditions: 48 h, ≥90% growth inhibition; 48 hours; vs 2% DMSO control; read-out: Compound Concentration (ppm) sufficient for ≥90% inhibition of Cg
Procedure, shortened: as §1

[6] = test system: Fusarium virguliforme (Fv); assay: In vitro pathogen growth inhibition assay, Fv; format: cell-based; conditions: ≥90% growth inhibition, 48 hours, vs 2% DMSO control, read-out: Compound Concentration (ppm) sufficient for ≥90% inhibition of Fv
Procedure, shortened: as §2

Diplodia maydis (Dm) = assay: In vitro pathogen growth inhibition assay, Dm; format: cell-based; conditions: Stenocarpella maydis, 48 h, ≥90% growth inhibition; 48 hours; vs 2% DMSO control; read-out: Compound Concentration (ppm) sufficient for ≥90% inhibition of Dm
Procedure, shortened: as §2

Rhizoctonia solani (Rs) = assay: In vitro pathogen growth inhibition assay, Rs (mycelial plugs); format: cell-based; conditions: Rhizoctonia solani, 48 h, ≥90% growth inhibition; mycelial plugs; 48 hours; vs 2% DMSO control; read-out: Compound Concentration (ppm) sufficient for ≥90% inhibition of Rs
Procedure, shortened: as §2

Septoria tritici (St) = assay: In vitro pathogen growth inhibition assay, St; format: cell-based; conditions: Zymoseptoria tritici, 48 h, ≥90% growth inhibition; 48 hours; vs 2% DMSO control; read-out: Compound Concentration (ppm) sufficient for ≥90% inhibition of St
Procedure, shortened: as §1

Phakopsora pachyrhizi = assay: Foliar protection test for Asian soybean rust control; format: in vivo; conditions: foliar application to soybean (Glycine max AG4832), percent disease area evaluated 14 days later
Sphaerotheca fuliginea = assay: Foliar protection for cucumber powdery mildew control; format: in vivo; conditions: foliar spray on Cucumis sativus cv. Straight Eight, inoculated 24 hours after treatment, evaluated 7 days later
Procedure, shortened: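 Protective foliar spray on 10-day-old Straight Eight cucumbers, with S. fuliginea spores dusted from infected stock plants 24 h after treatment. Disease developed at 23–27 °C, 60% RH and a 16 h photoperiod. Leaves were rated for mildew growth after 7 days; test rates 10 ppm or below.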

Puccinia triticina = assay: Foliar protection test for wheat leaf rust control; format: in vivo; conditions: foliar application to wheat (Triticum aestivum cv. Winterhawk), evaluated 10 days later
Botrtyis cinerea (Bc) = assay: In vitro pathogen growth inhibition assay, Bc; format: cell-based; conditions: 48 h, ≥90% growth inhibition; 48 hours; vs 2% DMSO control; read-out: Compound Concentration (ppm) sufficient for ≥90% inhibition of Bc
Procedure, shortened: as §1

SMILES	Septoria Leaf Blotch Control at a compound concentration of 25 ppm or lower [1]	IC90 [2]	Wheat Fusarium Head Blight Control at a compound concentration of 25 ppm or lower (Fusarium graminearum)	Barley Powdery Mildew Control at a compound concentration of 10 ppm or lower [3]	IC90 [4]	IC90 [5]	IC90 [6]	IC90 (Diplodia maydis (Dm))	IC90 (Rhizoctonia solani (Rs))	IC90 (Septoria tritici (St))	Asian Soybean Rust Control at a compound concentration of 25 ppm or lower (Phakopsora pachyrhizi)	Cucumber Powdery Mildew Control at a compound concentration of 10 ppm or lower (Sphaerotheca fuliginea)	Wheat Leaf Rust Control at a compound concentration of 10 ppm or lower (Puccinia triticina)	IC90 (Botrtyis cinerea (Bc))
CCNC(=O)C(C)(C)n1c(=O)c2c(C)c(C(=O)OCC)sc2n(C[C@H](OCCC#N)c2ccccc2OC)c1=O [Compound I-234, (R)-ethyl-1-(2-(2-cyanoethoxy)-2-(2-methoxyphenyl)ethyl)-3-(1-(ethylamino)-2-methyl-1-oxopropan-2-yl)-5-methyl-2,4-dioxo-1,2,3,4-tetrahydrothieno[2,3-d]pyrimidine-6-carboxylate]	C (from 25 to 49% control of wheat septoria leaf blotch)	0.08 µg/mL (≈ 0.14 µM)	C (from 25 to 49% control of wheat fusarium head blight)	AA (≥85% control of barley powdery mildew)	> 50 µg/mL	2 µg/mL (≈ 3.5 µM)	2 µg/mL (≈ 3.5 µM)	2 µg/mL (≈ 3.5 µM)	2 µg/mL (≈ 3.5 µM)	> 10 µg/mL	A (from 70% to 84% control of Asian soybean rust)	AA (≥85% control of cucumber powdery mildew)	AA (≥85% control of wheat leaf rust)	2 µg/mL (≈ 3.5 µM)
COc1ccccc1[C@H](Cn1c(=O)n([C@@H](C)C(=O)N(C)C(C)C)c(=O)c2c(C)c(-n3nccn3)sc21)OCCC#N [Compound I-239, (S)-2-(1-((R)-2-(2-cyanoethoxy)-2-(2-methoxyphenyl)ethyl)-5-methyl-2,4-dioxo-6-(2H-1,2,3-triazol-2-yl)-1,4-dihydrothieno[2,3-d]pyrimidin-3 (2H)-yl)-N-isopropyl-N-methylpropanamide]	D (<25% control of wheat septoria leaf blotch)	0.08 µg/mL (≈ 0.138 µM)	C (from 25 to 49% control of wheat fusarium head blight)	AA (≥85% control of barley powdery mildew)	≥ 10 µg/mL	2 µg/mL (≈ 3.45 µM)	0.08 µg/mL (≈ 0.138 µM)	2 µg/mL (≈ 3.45 µM)	0.08 µg/mL (≈ 0.138 µM)	≥ 10 µg/mL	AA (≥85% control of Asian soybean rust)	AA (≥85% control of cucumber powdery mildew)	AA (≥85% control of wheat leaf rust)	2 µg/mL (≈ 3.45 µM)
CCc1ccc(F)cc1[C@H](Cn1c(=O)n(C(C)(C)C(=O)NC(C)C)c(=O)c2c(C)c(-n3nccn3)sc21)OCCO [Compound I-246, (R)-2-(1-(2-(2-ethyl-5-fluorophenyl)-2-(2-hydroxyethoxy)ethyl)-5-methyl-2,4-dioxo-6-(2H-1,2,3-triazol-2-yl)-1,4-dihydrothieno[2,3-d]pyrimidin-3 (2H)-yl)-N-isopropyl-2-methylpropanamide]	A (from 70% to 84% control of wheat septoria leaf blotch)	0.08 µg/mL (≈ 0.136 µM)	B (from 50 to 69% control of wheat fusarium head blight)	A (from 70% to 84% control of barley powdery mildew)	10 µg/mL (≈ 17 µM)	0.08 µg/mL (≈ 0.136 µM)	0.08 µg/mL (≈ 0.136 µM)	0.4 µg/mL (≈ 0.682 µM)	0.1 µg/mL (≈ 0.17 µM)	≥ 2 µg/mL	AA (≥85% control of Asian soybean rust)	AA (≥85% control of cucumber powdery mildew)	A (from 70% to 84% control of wheat leaf rust)	0.4 µg/mL (≈ 0.682 µM)
CCOC(=O)c1sc2c(c1C)c(=O)n(C(C)(C)C(=O)NC(C)C)c(=O)n2C[C@H](OCC#N)c1cc(F)ccc1OC [Compound I-251, (R)-ethyl-1-(2-(cyanomethoxy)-2-(5-fluoro-2-methoxyphenyl)ethyl)-3-(1-(isopropylamino)-2-methyl-1-oxopropan-2-yl)-5-methyl-2,4-dioxo-1,2,3,4-tetrahydrothieno[2,3-d]pyrimidine-6-carboxylate]	C (from 25 to 49% control of wheat septoria leaf blotch)	0.08 µg/mL (≈ 0.136 µM)	C (from 25 to 49% control of wheat fusarium head blight)	AA (≥85% control of barley powdery mildew)	> 50 µg/mL	2 µg/mL (≈ 3.4 µM)	0.4 µg/mL (≈ 0.68 µM)	2 µg/mL (≈ 3.4 µM)	0.4 µg/mL (≈ 0.68 µM)	> 10 µg/mL	C (from 25 to 49% control of Asian soybean rust)	AA (≥85% control of cucumber powdery mildew)	D (<25% control of wheat leaf rust)	0.4 µg/mL (≈ 0.68 µM)
CCOC(=O)c1sc2c(c1C)c(=O)n(C(C)(C)C(=O)NC(C)C)c(=O)n2C[C@H](OC[C@@H](C)C#N)c1cc(F)ccc1OC [Compound I-258, (R)-ethyl-1-(2-((S)-2-cyanopropoxy)-2-(5-fluoro-2-methoxyphenyl)ethyl)-3-(1-(isopropylamino)-2-methyl-1-oxopropan-2-yl)-5-methyl-2,4-dioxo-1,2,3,4-tetrahydrothieno[2,3-d]pyrimidine-6-carboxylate]	B (from 50 to 69% control of wheat septoria leaf blotch)	0.08 µg/mL (≈ 0.13 µM)	C (from 25 to 49% control of wheat fusarium head blight)	A (from 70% to 84% control of barley powdery mildew)	≥ 10 µg/mL	0.08 µg/mL (≈ 0.13 µM)	0.4 µg/mL (≈ 0.649 µM)	0.4 µg/mL (≈ 0.649 µM)	0.08 µg/mL (≈ 0.13 µM)	≥ 2 µg/mL	C (from 25 to 49% control of Asian soybean rust)	AA (≥85% control of cucumber powdery mildew)	A (from 70% to 84% control of wheat leaf rust)	0.4 µg/mL (≈ 0.649 µM)
CCOC(=O)c1sc2c(c1C)c(=O)n(C(C)(C)C(=O)NC(C)C)c(=O)n2C[C@H](OC[C@H](C)C#N)c1cc(F)ccc1OC [Compound I-259, (R)-ethyl-1-(2-((R)-2-cyanopropoxy)-2-(5-fluoro-2-methoxyphenyl)ethyl)-3-(1-(isopropylamino)-2-methyl-1-oxopropan-2-yl)-5-methyl-2,4-dioxo-1,2,3,4-tetrahydrothieno[2,3-d]pyrimidine-6-carboxylate]	C (from 25 to 49% control of wheat septoria leaf blotch)	0.08 µg/mL (≈ 0.13 µM)	B (from 50 to 69% control of wheat fusarium head blight)	A (from 70% to 84% control of barley powdery mildew)	> 50 µg/mL	0.08 µg/mL (≈ 0.13 µM)	0.4 µg/mL (≈ 0.649 µM)	0.4 µg/mL (≈ 0.649 µM)	0.08 µg/mL (≈ 0.13 µM)	> 10 µg/mL	B (from 50 to 69% control of Asian soybean rust)	AA (≥85% control of cucumber powdery mildew)	C (from 25 to 49% control of wheat leaf rust)	0.4 µg/mL (≈ 0.649 µM)
